Assay [1] concerns the target T1, CAS2 (Sordaria macrospora, UniProt C1L336).
T1 construct: recombinant, obtained in-house
T1 sequence (C1L336 54-284): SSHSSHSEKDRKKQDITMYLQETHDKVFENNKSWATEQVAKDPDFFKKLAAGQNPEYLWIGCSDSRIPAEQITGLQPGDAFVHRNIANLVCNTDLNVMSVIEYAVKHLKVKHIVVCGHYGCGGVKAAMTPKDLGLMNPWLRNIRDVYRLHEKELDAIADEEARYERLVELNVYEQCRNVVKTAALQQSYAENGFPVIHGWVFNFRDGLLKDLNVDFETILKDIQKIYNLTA
Kind of assay: biochemical. The arrangement: stopped-flow CO2 hydration assay, phenol red 557 nm, pH 8.3, 15 min preincubation; KI by Cheng-Prusoff. As to the method: An Applied Photophysics stopped-flow instrument has been used for assaying the CA catalysed CO2 hydration activity. Phenol red (at a concentration of 0.2 mM) has been used as indicator, working at the absorbance maximum of 557 nm, with 20 mM TRIS (pH 8.3) as buffer, and 20 mM Na2SO4 (for maintaining constant the ionic strength), following the initial rates of the CA-catalysed CO2 hydration reaction for a period of 10–100 s. The CO2 concentrations ranged from 1.7 to 17 mM for the determination of the kinetic parameters and inhibition constants. […] The uncatalysed rates were determined in the same manner and subtracted from the total observed rates. Stock solutions of inhibitor (0.1 mM) were prepared in distilled-deionized water and dilutions up to 0.01 nM were done thereafter with the assay buffer. Inhibitor and enzyme solutions were preincubated together for 15 min at room temperature prior to assay, in order to allow for the formation of the E–I complex. The inhibition constants were obtained by non-linear least-squares methods using PRISM 3 and the Cheng–Prusoff equation, as reported earlier, and represent the mean from at least three different determinations. All CA isofoms were recombinant ones obtained in-house as reported earlier[2]^,[9].

For assay [2], the target named is T2, CAS1 (Sordaria macrospora, UniProt F7VW42).
T2 construct: gene SMAC_03420; recombinant, obtained in-house
T2 sequence (F7VW42 1-234): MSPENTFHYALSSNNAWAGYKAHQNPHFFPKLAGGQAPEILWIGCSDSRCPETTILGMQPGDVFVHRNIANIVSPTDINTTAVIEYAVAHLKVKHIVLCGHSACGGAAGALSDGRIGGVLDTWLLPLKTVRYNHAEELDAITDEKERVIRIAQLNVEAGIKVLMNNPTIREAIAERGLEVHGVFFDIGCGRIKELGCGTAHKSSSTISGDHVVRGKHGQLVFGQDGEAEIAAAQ
Kind of assay: biochemical. Conditions: read-out: KI^a (nM) / CAS1^c / β. The arrangement: stopped-flow CO2 hydration assay, phenol red 557 nm, pH 8.3, 15 min preincubation; KI by Cheng-Prusoff. The protocol:
An Applied Photophysics stopped-flow instrument has been used for assaying the CA catalysed CO2 hydration activity. Phenol red (at a concentration of 0.2 mM) has been used as indicator, working at the absorbance maximum of 557 nm, with 20 mM TRIS (pH 8.3) as buffer, and 20 mM Na2SO4 (for maintaining constant the ionic strength), following the initial rates of the CA-catalysed CO2 hydration reaction for a period of 10–100 s. The CO2 concentrations ranged from 1.7 to 17 mM for the determination of the kinetic parameters and inhibition constants. For each inhibitor at least six traces of the initial 5–10% of the reaction have been used for determining the initial velocity. The uncatalysed rates were determined in the same manner and subtracted from the total observed rates. Stock solutions of inhibitor (0.1 mM) were prepared in distilled-deionized water and dilutions up to 0.01 nM were done thereafter with the assay buffer. Inhibitor and enzyme solutions were preincubated together for 15 min at room temperature prior to assay, in order to allow for the formation of the E–I complex. The inhibition constants were obtained by non-linear least-squares methods using PRISM 3 and the Cheng–Prusoff equation, as reported earlier, and represent the mean from at least three different determinations. All CA isofoms were recombinant ones obtained in-house as reported earlier[2]^,[9].

The target in assay [3] is T2, CAS1. The assay is described as follows: stopped-flow CO2 hydration assay. Type of assay: biochemical.
Assay [4] addresses T1, CAS2. The assay is described as follows: stopped-flow CO2 hydration assay. Type of assay: biochemical. Conditions: read-out: KI^a (nM) / CAS2^c / β.
[5] abbreviates: read-out: KI^a (nM) / CAS2^c / β, inhibitor.
The mark [6] stands for this setting: read-out: KI^a (nM) / CAS1^c / β.

Each structure is given as a SMILES string.

`NS(=O)(=O)c1cc2c(cc1Cl)NCNS2(=O)=O` [HCT]: the Ki at CAS2 [1] amounted to 6680 nM; on CAS1 [2] it was 3350 nM. With `Nc1ccc(S(N)(=O)=O)cc1Br` [compound 9, bromosubstituted derivative 9], at CAS1 [3] (pH 8.3, 20 mM TRIS, 20 mM Na2SO4, CO2 1.7-17 mM, 15 min preincubation at room temperature, read-out: KI^a (nM) / CAS1^c / β), the Ki was 580 nM. Take `Nc1ccc(S(N)(=O)=O)cc1Br` [compound 9]: at CAS2 [1] (setting [5]), the Ki stood at 12000 nM. In turn, `Nc1ccc(S(N)(=O)=O)cc1F` [compound 7] showed a Ki on CAS2 [1] of 7360 nM. With `Cc1ccc(-c2cc(C(F)(F)F)nn2-c2ccc(S(N)(=O)=O)cc2)cc1` [CLX, celecoxib], the Ki stood at 857 nM at CAS2 [4] and 2510 nM at CAS1 [2]. `CC(=O)N=c1sc(S(N)(=O)=O)nn1C` [MZA, methazolamide]: the Ki at CAS1 [3] (setting [6]) came to 421 nM. With `Nc1nnc(S(N)(=O)=O)s1` [compound 13, 5-amino-1,3,4-thiadiazole-2-sulfonamide], the Ki on CAS2 [4] was 48.1 nM; at CAS1 [2], 8650 nM. In the case of `Nc1ccc(S(N)(=O)=O)cc1F` [compound 7, 3-fluorosulfanilamide], the Ki at CAS1 [3] (setting [6]) was 43.2 nM. As for `Cc1onc(-c2ccccc2)c1-c1ccc(S(N)(=O)=O)cc1` [VLX], the values for the Ki on CAS2 [1] and on CAS1 [2] were 3730 nM and 4430 nM, respectively.

Regarding `NS(=O)(=O)c1cc(Cl)c(Cl)c(S(N)(=O)=O)c1` [DCP], the values for the Ki at CAS2 [1] and on CAS1 [2] were 5790 nM and 1220 nM, respectively.

On to `NS(=O)(=O)c1nnc(NS(=O)(=O)c2ccccc2)s1` [BZA, benzolamide], for which the Ki on CAS2 [4] was 410 nM; on CAS1 [2], 2110 nM. `Nc1ccc(S(N)(=O)=O)cc1` [compound 2, sulfanilamide] returned a Ki on CAS1 [3] of 144 nM. `Cc1ccc(S(N)(=O)=O)cc1` [compound 4] displayed a Ki at CAS2 [1] of 6900 nM.

In the case of `CCN1CCCC1CNC(=O)c1cc(S(N)(=O)=O)ccc1OC` (stereo not shown) [SLP, sulpiride], the Ki at CAS2 [4] came to 670 nM; at CAS1 [2] it was 1720 nM.

`CCN[C@H]1CN(CCCOC)S(=O)(=O)c2sc(S(N)(=O)=O)cc21` [BRZ, brinzolamide]: the figures for the Ki on CAS1 [3] (setting [6]) and at CAS2 [4] were 451 nM and 739 nM, respectively. As to `O=C1NS(=O)(=O)c2ccccc21` [SAC], the Ki at CAS2 [1] stood at 7070 nM; on CAS1 [2] it was 5280 nM. As to `NS(=O)(=O)c1ccc(CO)cc1` [compound 16, 4-hydroxymethyl-benzenesulfonamide], the Ki at CAS2 [4] was determined as 92.5 nM; on CAS1 [2] it was 4520 nM.

Consider `NS(=O)(=O)c1ccc(N2CCCCS2(=O)=O)cc1` [SLT, sulthiame], for which the Ki at CAS2 [4] is 496 nM; on CAS1 [2], 3210 nM. For the molecule `Cc1ccc(S(N)(=O)=O)cc1` [compound 4, tosylamide], the Ki on CAS1 [3] (setting [6]) came out at 47.1 nM. With `NS(=O)(=O)Cc1noc2ccccc12` [ZNS], the Ki on CAS2 [1] amounted to 1890 nM; on CAS1 [2] it was 1820 nM. Take `Nc1ccc(S(N)(=O)=O)cc1Cl` [compound 8]: the Ki at CAS2 [1] is 9120 nM. Regarding `NS(=O)(=O)c1ccc(S(=O)(=O)Nc2cccc3c(Cl)c[nH]c23)cc1` [IND, indisulam], the Ki on CAS2 [4] is 216 nM; at CAS1 [2] it was 4240 nM. As to `CC1(C)O[C@@H]2[C@@H](CO[C@@]3(COS(N)(=O)=O)OC(C)(C)O[C@@H]23)O1` [TPM, topiramate], the Ki on CAS1 [3] (setting [6]) was determined as 414 nM; on CAS2 [4] it was 673 nM. Turning to `Cn1nc(S(N)(=O)=O)sc1=N` [compound 14], the Ki came out at 280 nM on CAS2 [1] (setting [5]) and 7210 nM at CAS1 [2] (inhibitor).

Take `Nc1ccc(S(N)(=O)=O)cc1Cl` [compound 8, 3-chlorosulfanilamide]: the Ki on CAS1 [3] (setting [6]) stood at 79.6 nM.

Values taken from PMC6010127, “Sulfonamide inhibition studies of two β-carbonic anhydrases from the ascomycete fungus Sordaria macrospora, CAS1 and CAS2” (Journal of Enzyme Inhibition and Medicinal Chemistry, 2018).
